# Measured values: publication PMC12291837, “Elephant Cathelicidin-Derived Peptides Inhibit Herpes Simplex Virus 1 Infection” (Antibiotics, 2025)
# Where no end group is shown, it is not given here.
# How the values were obtained:
# HSV-1 [1] = assay: microbe, parasite or virus in culture; assay type: cell-based, Herpes simplex virus type 1 (HSV-1 17 + strain); details: U251 cells
# Method: (§1) Human glioma cells (U251) were maintained in Dulbecco’s Modified Eagle Medium (DMEM; Gibco, Waltham, MA, USA) supplemented with 10% heat-inactivated fetal bovine serum (FBS; ExCell), 100 U/mL penicillin, and 100 µg/mL streptomycin. Serum inactivation was performed at 56 °C for 30 min prior to medium supplementation. Cell cultures were incubated at 37 °C under 5% CO2 atmosphere. The HSV-1 17 + strain utilized in this study was maintained under laboratory preservation conditions.
# U251 cells were seeded into 12-well plates at a density of 2 × 10^5 cells per well and incubated for 12 h. […] Following treatment, the total DNA was extracted by using DNA isolation mini kit (Vazyme, Nanjing, China) under the manufacturer’s instructions.
# Total RNA was extracted using TRIzol reagent (Invitrogen, Carlsbad, CA, USA). One microgram of RNA was reverse-transcribed into cDNA by using a reverse transcription kit (Vazyme, China). Diluted gDNA and cDNAs were subjected to qPCR analysis using ChamQ Universal SYBR qPCR Master Mix (Vazyme, China) with the following parameters: 95 °C for 30 s, followed by 40 cycles of 95 °C for 5 s and 60 °C for 30 s, followed by melting curve analysis. Primers for qPCR were synthesized by Sangon Biotech (Shanghai, China) (Appendix A Table A2). The qPCR data were analyzed using the 2^−ΔΔCt method.
# HSV-1 [2] = assay: HSV-1 footpad inoculation mouse model, viral load (UL30 gene copies) and lung H&E histology; assay type: in vivo; details: C57BL/6J mice, 10 mg/kg i.p. once daily for 5 days
# Method: Female C57BL/6J mice, aged 6–8 weeks, were purchased from Beijing Vital River Laboratory Animal Technology Co., Ltd. (Beijing, China). […] Except for the vehicle control group, mice in the other groups were subplantarly infected with HSV-1 at a dose of 1.0 × 10^6 PFU per mouse. […] The vehicle control and virus control groups received an equivalent volume of phosphate-buffered saline (PBS). Mice were euthanized 24 h after the last administration, and tissue samples were collected. Body weight was measured daily at a fixed time during the treatment period to generate weight change curves.
# Tissues were homogenized using a tissue grinder and total DNA was extracted from homogenate supernatants using a DNA isolation mini kit (Vazyme, China) under the manufacturer’s instructions. To establish a standard curve for real-time quantitative PCR (qPCR), the UL30 gene was used as the target sequence, and a recombinant plasmid containing this gene was constructed. In brief, the UL30 gene was cloned into the pMD19-T vector and transformed into DH5α. After verification by colony PCR and sequencing, high-purity plasmid DNA was extracted, and its concentration was measured using Nanodrop and converted into copy numbers (copies/μL). Then a 10-fold serial dilution (10^1–10^8 copies/μL) was prepared to generate the standard curve. Using the extracted DNA as a template, UL30 gene copy numbers were quantified in mouse tissues through qPCR with UL30 specific primers.
# Tissues were fixed in 4% paraformaldehyde for 72 h and subsequently processed by Servicebio Biotechnology Co., Ltd. (Wuhan, China) for paraffin embedding, pathological sectioning, and hematoxylin eosin (H&E) staining.
# U251 cells = assay: Cytotoxicity assay (CCK-8) on U251 cells; assay type: cell-based, Human; details: 24 h
# Method: as §1
# Cell viability was evaluated by using cell counting kit-8 reagent (CCK-8, Biosharp, Shanghai, China) according to the manufacturer’s protocol. Briefly, U251 cells were seeded in 96-well culture plates and cultured for 12 h at 37 °C. The cells were then treated with or without peptides for 24 h. After that, 10 μL of the CCK-8 reaction mixture were added to each well and incubated at 37 °C for 0.5–4 h. The absorbance of each well was measured at 450 nm with a SpectraMax M2e Multi-Mode Microplate Reader (Molecular Devices, USA). The formula for calculating cell viability is as follows:
# Cell viability (%) = (average OD of treated sample-average OD of vehicle sample)/(average OD of cell sample-average OD of vehicle sample) × 100%
molecule,measurement,setting,value
"Nc1nc2c(ncn2COCCO)c(=O)[nH]1 [ACV, Acyclovir]",IC50,"HSV-1 [1]; Human alphaherpesvirus 1, U-251, HSV-1 MOI = 0.1, co-treatment 24 h, qPCR of UL30 DNA, mean ± SEM of three independent experiments, read-out: IC50 against HSV-1",17.6 ± 5.75 µM
same,Lung tissue viral load (HSV-1 UL30 gene copies),"HSV-1 [2]; HSV-1 footpad 1.0 × 10^6 PFU, day 5 post-infection, n = 5, HSV-1 control 7.02 ± 0.57",6.01 ± 0.13 log10 copies/μL
same,Heart tissue viral load versus HSV-1 control group,"HSV-1 [2]; HSV-1 footpad, n = 5, HSV-1 control 7.78 ± 0.41 log10 copies/μL",neither the EM-1 nor the ACV treatment group showed a significant difference
same,Lung histopathology (H&E staining),"HSV-1 [2]; HSV-1 footpad, compared with HSV-1 control group",preserved normal alveolar architecture
"GRRVKGFFRDVLRRVPYLPGPR-NH2 [EM-2, modified peptide derived from Elephas maximus cathelicidin EM]",Relative DNA levels of HSV-1 UL30,"HSV-1 [1]; HSV-1 MOI = 0.1, 24 h, 10 μM peptide, versus virus control group, p < 0.001",marked suppression of HSV-1 activity
same,Cytotoxic effect on U251 cells (cell viability),"U251 cells; U251 cells, CCK-8, 5 μM and 10 μM, compared to peptide EM, EM-3 and EM-4",significantly lower toxicity
RRIRGLRKFFRKSKEKLKKV-NH2 [EM-1],CC50 (median cytotoxic concentration),U251 cells,214.55 ± 36.25 µM
